The test system of test [1] is S. aureus CBC4. Nature of the test: Deferred antagonism assay. The class given is cell-based. Set-up: key: + = Enhanced bioactivity relative to control; − = Bioactivity equal to or less than control; NA = no activity evident. Conditions: XX and XXX hinge mutant producers. As for the experimental part:
(§1) Deferred antagonism assays were performed by replicating strains on GM17 or GM17 x-gal agar plates and allowing them to grow overnight before overlaying with either GM17/BHI/TS/MH agar (0.75% w/v agar) seeded with the appropriate indicator strain. Zone size was calculated as the diameter of the zone of clearing minus the diameter of bacterial growth (5 mm) For higher throughput screening of N20PXX, XM21VX, XXK22T and XXX banks deferred antagonism assays were performed by replicating strains using a 96 pin replicator (Boekel) or spotting 5 μl of a fresh overnight culture on GM17 agar plates and allowing them to grow overnight. […] Additional sets of indicators were employed to further assess/reassess the bioactivity of a number of strains. […] For well-diffusion assays molten agar was cooled to 48° C. and seeded with the appropriate indicator strain. The inoculated medium was rapidly transferred into sterile Petri plates in 50 ml volumes, allowed to solidify and dried. Wells (4.6 mm in diameter) were then made in the seeded plates. Purified nisin and mutant nisins were resuspended in 0.005% acetic acid, serially diluted, 50 μl volumes were dispensed into the aforementioned wells and the plates incubated at 37° C. overnight. Bioactivity was expressed as arbitrary units/ml (AU/ml) and calculated as the reciprocal of the highest dilution that gave a definite zone multiplied by the conversion factor (i.e. 20 when 50 μl was used) (Ryan et al., 1996).
(§2) As a consequence of the enhanced activities of K22T and K22S, a more in-depth investigation of this region was carried out. Saturation mutagenesis was undertaken to create a bank of nisin A hinge derivatives containing the vast majority of possible amino acid substitutions for each position. Although pPTPL was used successfully for random mutagenesis, its relatively large size of approx 10.5 kb was considered unsuitable for the complete plasmid PCR amplification approach utilized for saturation mutagenesis. A smaller (approx 6 kb) E. coli-L. lactis shuttle vector pCI372 was considered to be potentially more useful. Its suitability with respect to the in trans expression of nisA was confirmed by the ability of pDFO5 to restore the nisin positive phenotype. Saturation mutagenesis was performed on each codon using pDF05 and oligonucleotides (Table 5) that replace the specific codon with a NNK triplet, potentially encoding all 20 standard amino acids. Following complete plasmid amplification and introduction into the intermediate Top10 host, sequence analysis of a pooled bank of pDF05 derivatives confirmed randomization. Introduction of these variants into L. lactis NZ9800 allowed the expression of mutant nisin A peptides for further analysis. […] 46 residue conversions were isolated. All strains, regardless of bioactivity, were assessed with a view to comprehensively assessing the consequences of each individual hinge alteration.

Test [2] concerns L. lactis CBC8. The experiment in a line: Deferred antagonism assay. In kind it is cell-based. As to conditions: XX and XXX hinge mutant producers. Set-up: key: + = Enhanced bioactivity relative to control; − = Bioactivity equal to or less than control; NA = no activity evident. As for the experimental part: as §1, §2
Test [3] has as its system L. lactis CBC7. The experiment in a line: Deferred antagonism assay. In kind it is cell-based. Set-up: key: + = Enhanced bioactivity relative to control; − = Bioactivity equal to or less than control; NA = no activity evident. Conditions: XX and XXX hinge mutant producers. As for the experimental part:
as §1, §2

Test [4] relates to L. plantarum CBC6. The experiment in a line: Deferred antagonism assay. The class given is cell-based, Lactobacillus plantarum. Set-up: key: + = Enhanced bioactivity relative to control; − = Bioactivity equal to or less than control; NA = no activity evident. As to conditions: XX and XXX hinge mutant producers. As for the experimental part:
as §1, §2

Test [5] deals with L. monocytogenes CBC3. The experiment in a line: Deferred antagonism assay. The class given is cell-based, Listeria monocytogenes. Conditions: L. mono CBC3; XX and XXX hinge mutant producers. Set-up: key: + = Enhanced bioactivity relative to control; − = Bioactivity equal to or less than control; NA = no activity evident. As for the experimental part:
as §1, §2

Test [6] deals with L. monocytogenes CBC2. Nature of the test: Deferred antagonism assay. In kind it is cell-based, Listeria monocytogenes. Set-up: key: + = Enhanced bioactivity relative to control; − = Bioactivity equal to or less than control; NA = no activity evident. Conditions: L. mono CBC2; XX and XXX hinge mutant producers. As for the experimental part: as §1, §2
The test system of test [7] is L. monocytogenes CBC1. The experiment in a line: Deferred antagonism assay. Set-up: key: + = Enhanced bioactivity relative to control; − = Bioactivity equal to or less than control; NA = no activity evident. Conditions: L. mono CBC1; XX and XXX hinge mutant producers. In kind it is cell-based, Listeria monocytogenes. As for the experimental part: as §1, §2
The subject of test [8] is indicator strains. The experiment in a line: Deferred antagonism assays, various indicator strains (summary). The class given is cell-based. Conditions: for Target strain against which the hinge mutant was selected for enhanced bioactivity: XX and XXX banks, L. lactis HP*: enhanced or equal; for Target strain against which the hinge mutant was selected for enhanced bioactivity / Strain(s) against which the derivative (producing strain) displays enhanced bioactivity: relative to nisin A-producing control; for number of targets with enhanced activity: of the 8 additional targets tested; for Strain(s) against which the derivative (producing strain) displays enhanced bioactivity: value = strains listed. As for the experimental part:
as §1

Entries after “also recorded” stand apart in the source; their conditions may differ. Ends that are not written are not given here.

Take “NisinA GLA (ITSISLCTPGCKTGALMGCGLATATCHCSIHVSK; cysteine pairing not given here; also: lantibiotic nisin-A; UniProt P13068 24-57, looked up, variant N20G M21L K22A) [nisin A hinge variant GLA (i.e. N20G, M21L, K22A)]”: the “bioactivity relative to a nisin A-producing control” value in test [1], in test [2], in test [3], in test [4], in test [5] and in test [6] was “−” each time. In addition, the “bioactivity relative to a nisin A-producing control” value in test [7] is “−”. Besides, in test [8], the “Target strain against which the hinge mutant was selected for enhanced bioactivity” value is listed as “B. cereus UCC1”. The “number of targets with enhanced activity” value in test [8] stood at 1. The “Strain(s) against which the derivative (producing strain) displays enhanced bioactivity” value (from here on “Strain(s) against which the derivative”) in test [8] is recorded as “B. cereus UCC1”.
In the case of NisinA GVK, the “bioactivity relative to a nisin A-producing control” value in test [1] is “+”; in test [2], “−”; in test [3], “+”; in test [4], “−”; in test [5], “+”; in test [6], “−”. Besides, in test [7], the “bioactivity relative to a nisin A-producing control” value is on record as “−”. The “Target strain against which the hinge mutant was selected for enhanced bioactivity” value in test [8] is on record as “C. sporogenes UCC1”. Also, the “number of targets with enhanced activity” value in test [8] is recorded as 3. Moreover, in test [8], the “Strain(s) against which the derivative” value was “C. sporogenes UCC1, L. monocytogenes CBC3, S. aureus CBC4 and L. lactis CBC7 and C. sporogenes UCC1, L. mono CBC3, S. aureus CBC4, L. lactis and CBC7”.
On to “NisinA PAQ (ITSISLCTPGCKTGALMGCPAQTATCHCSIHVSK; not fully specified (bridges); also: lantibiotic nisin-A: lanthionine rings and dehydrated residues, places not given here; UniProt P13068 24-57, looked up, variant N20P M21A K22Q) [nisin A hinge variant PAQ (i.e. N20P, M21A, K22Q)]”, for which, in test [8], the “Target strain against which the hinge mutant was selected for enhanced bioactivity” value was “L. lactis HP*”; the “number of targets with enhanced activity” value is reported as 3; the “Strain(s) against which the derivative” value was “S. agalactiae ATCC13813 and strain B and S. aureus NCDO1499”.
Consider “NisinA PGA (ITSISLCTPGCKTGALMGCPGATATCHCSIHVSK; not fully specified (bridges); also: lantibiotic nisin-A: lanthionine rings and dehydrated residues, places not given here; UniProt P13068 24-57, looked up, variant N20P M21G K22A) [nisin A hinge variant PGA (i.e. N20P, M21G, K22A)]”, for which, in test [8], the “Target strain against which the hinge mutant was selected for enhanced bioactivity” value is recorded as “L. lactis HP*”; the “number of targets with enhanced activity” value is 3; the “Strain(s) against which the derivative” value was “S. agalactiae ATCC13813 and strain B and S. aureus NCDO1499”.
On to “NisinA PHT (ITSISLCTPGCKTGALMGCPHTTATCHCSIHVSK; not fully specified (bridges); also: lantibiotic nisin-A: lanthionine rings and dehydrated residues, places not given here; UniProt P13068 24-57, looked up, variant N20P M21H K22T) [nisin A hinge variant PHT (i.e. N20P, M21H, K22T)]”, for which, in test [8], the “Target strain against which the hinge mutant was selected for enhanced bioactivity” value is given as “Strep. agalactiae ATCC 13813”; the “number of targets with enhanced activity” value was 3; the “Strain(s) against which the derivative” value is “Strep. agalactiae ATCC 13813 and Strain B, and L. lactis MG1363; also recorded: Strep. agalactiae ATCC 13813, L. lactis MG1363, S. agalactiae”.
Take “NisinA PIH (ITSISLCTPGCKTGALMGCPIHTATCHCSIHVSK; not fully specified (bridges); also: lantibiotic nisin-A: lanthionine rings and dehydrated residues, places not given here; UniProt P13068 24-57, looked up, variant N20P M21I K22H) [nisin A hinge variant PIH (i.e. N20P, M21I, K22H)]”: in test [8], the “Target strain against which the hinge mutant was selected for enhanced bioactivity” value was “L. lactis HP*”, the “number of targets with enhanced activity” value is reported as 1 and the “Strain(s) against which the derivative” value is listed as “S. agalactiae Strain B”.
“NisinA PIT (ITSISLCTPGCKTGALMGCPITTATCHCSIHVSK; not fully specified (bridges); also: lantibiotic nisin-A: lanthionine rings and dehydrated residues, places not given here; UniProt P13068 24-57, looked up, variant N20P M21I K22T) [nisin A hinge variant PIT (i.e. N20P, M21I, K22T)]”: in test [8], the “Target strain against which the hinge mutant was selected for enhanced bioactivity” value was “L. lactis HP*”; the “number of targets with enhanced activity” value turned out to be 3; the “Strain(s) against which the derivative” value is “S. agalactiae ATCC13813 and strain B and S. aureus NCDO1499”.
With “NisinA PIV (ITSISLCTPGCKTGALMGCPIVTATCHCSIHVSK; not fully specified (bridges); also: lantibiotic nisin-A: lanthionine rings and dehydrated residues, places not given here; UniProt P13068 24-57, looked up, variant N20P M21I K22V) [nisin A hinge variant PIV (i.e. N20P, M21I, K22V)]”, in test [8], the “Target strain against which the hinge mutant was selected for enhanced bioactivity” value was “L. lactis HP*”; the “number of targets with enhanced activity” value is 3; the “Strain(s) against which the derivative” value was “S. agalactiae ATCC13813 and strain B and S. aureus NCDO1499”.
On to NisinA PMA, for which, in test [8], the “Target strain against which the hinge mutant was selected for enhanced bioactivity” value is “Strep. agalactiae ATCC 13813”; the “number of targets with enhanced activity” value amounted to 1; the “Strain(s) against which the derivative” value was “Strep. agalactiae ATCC 13813 and S. aureus DPC5246”.
For the substance “PHM: nisin A hinge variant PHM (i.e. N20P, M21H, K22M) (ITSISLCTPGCKTGALMGCPHMTATCHCSIHVSK; not fully specified (bridges); also: lantibiotic nisin-A: lanthionine rings and dehydrated residues, places not given here; UniProt P13068 24-57, looked up, variant N20P M21H K22M)”, in test [8], the “Target strain against which the hinge mutant was selected for enhanced bioactivity” value is given as “Strep. agalactiae ATCC 13813”; the “number of targets with enhanced activity” value is listed as 2; the “Strain(s) against which the derivative” value was “Strep. agalactiae ATCC 13813 and Strain B; also recorded: Strep. agalactiae ATCC 13813, S. agalactiae Strain B”.

The record behind these values is patent publication US8987193B2, “Nisin derivatives and the use thereof” (University College Cork—National University of Ireland, Cork, priority 2008, dated 2015).
